Literature values as cited in patent US6767895B2 (priority 2000, dated 2004).

Settings: in vivo; cited from earlier work

contulakin-G
potency in inhibiting pain relative to neurotensin: significantly more potent than neurotensin
